Source: PMC5650142, “GPR40 partial agonists and AgoPAMs: Differentiating effects on glucose and hormonal secretions in the rodent” (PLoS ONE, 2017)
“And” between values parts separate entries of the source, which are not always exact repeats. Identical values can stand only once.

Key:
[1] = tested on: GK rats; experiment: GK rat acute efficacy (glucose, insulin, glucagon after single dose); format: in vivo; conditions: for Plasma Glucagon Over Time (Fig 2C) / Plasma Insulin Over Time (Fig 2B): 30 mpk
Experimental: Ambient blood glucose was measured via tail snip with a glucometer (OneTouch Ultra, Lifescan Inc., Milpitas, CA). Body weights were then measured, and food was removed approximately 1 hr post lights on. Animals were sorted into treatment groups based on ambient glucose. At approximately 10 AM, glucose was measured and blood for insulin, glucagon, and drug exposure was collected. […] Each compound tested was dosed at its maximal effective dose determined through a series of dose titrations using this experimental paradigm (data not shown). Effects of treatment on glucose, insulin, and glucagon were measured at 1, 2, 4, and 24 hrs post dose. After the 4 hr blood collection, food was returned overnight and removed the next day at 1 hr post lights on.
Blood for insulin, glucagon, GLP-1, GIP, and PYY measurements was collected into K2EDTA Microtainer tubes (BD, Franklin Lakes, NJ) pre-treated with DPP4 inhibitor (Millipore, Billerica, MA) and cOmplete™ Protease Inhibitor Cocktail Tablets (Roche Diagnostics, Indianapolis, IN). Tubes were centrifuged for 10 minutes at 5000 RPM, and plasma was aliquotted for analysis. Plasma insulin levels were measured via EIA (Mesoscale Discovery ELISA Kit, Gaithersburg MD). Rat plasma total GLP-1 was measured using Total GLP-1 (ver.2) Assay Kit (Cat#: K150JVC). The measurement of active GLP-1 was carried out in a similar manner as that described for total GLP-1 assay with the exception that MSD Active GLP-1 (ver. 2) assay kit (Cat# K150JWC) was used. Rat plasma glucagon was measured using an in-house glucagon assay developed as a MSD format sandwich immunoassay (Merck & Co., Inc., MRL, Kenilworth, NJ USA). The antibody specificity was cross validated via mass- spec using procedures described in Lee et al. Briefly, MSD Streptavidin Gold plates were coated with 2 μg/ml biotin mouse monoclonal antibody generated to glucagon. Test samples were added to the plates and a separate Sulfo- tagged monoclonal antibody was used to detect the captured glucagon protein (2 μg/ml). The ELISA was carried out in the standard reagents in the MSD format. The plate was read on the SECTOR Imager 6000 Reader. Metabolic hormones GIP (Gastric Inhibitory Polypeptide) and PYY (Peptide YY) were measured in rat plasma using the Rat Metabolic Magnetic Bead Panel (EMD Millipore, Billerica, MA). The assay was performed according to manufacturer protocol.

[2] = tested on: pancreatic islets from wild type and GPR40−/− mice; experiment: Isolated pancreatic islets static GDIS assay (insulin, glucagon secretion); format: cell-based, mouse; parameters: Islet insulin / Islet insulin, mean: unit not given here; conditions: for glucagon secretion from islets: ex vivo; for Islet Glucagon / Islet insulin: individual replicates; for Islet Glucagon, mean / Islet insulin, mean: mean of replicates
Experimental: Pancreatic islets of Langerhans were isolated from wild type and GPR40^−/− mice (littermates) by collagenase digestion and discontinuous Ficoll gradient separation. […] Insulin secretion was determined by a 1-h static incubation in Krebs-Ringer bicarbonate (KRB) buffer in a 96-well format as previously described. […] The buffer was removed from the wells at the end of the incubation and assayed for insulin levels using the Insulin ELISA kit (ALPCO, Salem, NH) and glucagon level using glucagon ELISA kit (ALPCO, Salem, NH).

With `COc1ccc(F)c(-c2ccc([C@@H]3CCc4ccc([C@H](C5CC5)[C@H](C)C(=O)O)cc4O3)cc2)c1` [AP1] the “Plasma Glucagon Over Time (Fig 2C)” value ([1]; time 0, individual animals) was 55.7691 pg/mL and 68.321 pg/mL and 77.904 pg/mL and 111.395 pg/mL and 52.9088 pg/mL and 48.0782 pg/mL and 166.643 pg/mL and 75.2113 pg/mL, the “Plasma Insulin Over Time (Fig 2B)” value ([1]; time 0, individual animals) was 1.368 ng/mL and 2.115 ng/mL and 2.541 ng/mL and 1.628 ng/mL and 3.5154 ng/mL and 1.38 ng/mL and 1.662 ng/mL and 2.024 ng/mL and the “Plasma Glucagon Over Time (Fig 2C)” value ([1]; time 1, individual animals) was 68.4222 pg/mL and 203.855 pg/mL and 443.444 pg/mL and 510.501 pg/mL and 371.284 pg/mL and 243.688 pg/mL and 323.455 pg/mL and 532.086 pg/mL. For the same compound, the “Plasma Insulin Over Time (Fig 2B)” value ([1]; time 1, individual animals) was 2.471 ng/mL and 8.448 ng/mL and 6.286 ng/mL and 2.7997 ng/mL and 8.046 ng/mL and 6.547 ng/mL and 6.926 ng/mL and 4.435 ng/mL, the “Plasma Glucagon Over Time (Fig 2C)” value ([1]; time 2, individual animals) was 677.742 pg/mL and 147.407 pg/mL and 198.886 pg/mL and 95.5346 pg/mL and 199.272 pg/mL and 184.367 pg/mL and 336.315 pg/mL and 387.077 pg/mL and the “Plasma Insulin Over Time (Fig 2B)” value ([1]; time 2, individual animals) was 2.6557 ng/mL and 2.936 ng/mL and 3.027 ng/mL and 0.7256 ng/mL and 3.203 ng/mL and 2.271 ng/mL and 3.072 ng/mL and 2.0183 ng/mL. For the same compound, the “Plasma Glucagon Over Time (Fig 2C)” value ([1]; time 4, individual animals) was 426.615 pg/mL and 76.1995 pg/mL and 36.6178 pg/mL and 86.9884 pg/mL and 83.1703 pg/mL and 202.015 pg/mL and 219.163 pg/mL and 202.907 pg/mL, the “Plasma Insulin Over Time (Fig 2B)” value ([1]; time 4, individual animals) was 2.117 ng/mL and 1.616 ng/mL and 1.477 ng/mL and 1.139 ng/mL and 1.988 ng/mL and 2.587 ng/mL and 2.052 ng/mL and the “Plasma Glucagon Over Time (Fig 2C)” value ([1]; time 24, individual animals) was 168.326 pg/mL and 107.348 pg/mL and 18.8494 pg/mL and 200.464 pg/mL and 140.291 pg/mL and 122.096 pg/mL and 264.039 pg/mL and 261.868 pg/mL. For the same compound, the “Plasma Insulin Over Time (Fig 2B)” value ([1]; time 24, individual animals) was 1.016 ng/mL and 0.9428 ng/mL and 0.1505 ng/mL and 1.222 ng/mL and 1.548 ng/mL and 1.3655 ng/mL and 1.314 ng/mL and 1.563 ng/mL, the “glucagon secretion from islets” value ([2]; GPR40-/- mouse islets) was “abolished” and the “Islet Glucagon” value ([2]; KO mouse islets, G2, 1uM) was 8.295 pg/ml/ islet and 16.584 pg/ml/ islet and 5.331 pg/ml/ islet and 9.664 pg/ml/ islet and 1.86 pg/ml/ islet and 24.388 pg/ml/ islet and 22.826 pg/ml/ islet and 23.18 pg/ml/ islet and 16.858 pg/ml/ islet and 27.237 pg/ml/ islet. For the same compound, the Islet insulin ([2]; KO mouse islets, G2, 1uM) was 0.224 and 0.186 and 0.933 and 0.721 and 1.124 and 0.514 and 0.261 and 0.152 and 0.181 and 0.215, the “Islet Glucagon, mean” value ([2]; KO mouse islets, G2, 1uM) was 15.6223 pg/ml/ islet and the “Islet insulin, mean” value ([2]; KO mouse islets, G2, 1uM) was 0.4511. The “Islet Glucagon” value ([2]; KO mouse islets, G16, 1uM) was 5.183 pg/ml/ islet and 12.803 pg/ml/ islet and 9.635 pg/ml/ islet and 3.883 pg/ml/ islet and 11.858 pg/ml/ islet and 6.688 pg/ml/ islet and 0.121 pg/ml/ islet and 5.519 pg/ml/ islet and 6.26 pg/ml/ islet and 3.878 pg/ml/ islet, the Islet insulin ([2]; KO mouse islets, G16, 1uM) was 2.959 and 3.403 and 3.966 and 2.272 and 3.839 and 3.783 and 2.961 and 3.664 and 2.593 and 1.94 and the “Islet Glucagon, mean” value ([2]; KO mouse islets, G16, 1uM) was 6.5828 pg/ml/ islet. The “Islet insulin, mean” value ([2]; KO mouse islets, G16, 1uM) was 3.138, the “Islet Glucagon” value ([2]; WT mouse islets, G2, 1uM) was 55.828 pg/ml/ islet and 87.628 pg/ml/ islet and 54.498 pg/ml/ islet and 21.019 pg/ml/ islet and 35.248 pg/ml/ islet and 60.615 pg/ml/ islet and 73.937 pg/ml/ islet and 63.3 pg/ml/ islet and 50.656 pg/ml/ islet and 33.503 pg/ml/ islet and the Islet insulin ([2]; WT mouse islets, G2, 1uM, listed as L-005306254) was 0.53 and 1.151 and 0.66 and 1.39 and 2.61 and 1.55 and 1.058 and 0.71 and 0.4565 and 0.7725. For the same compound, the “Islet Glucagon, mean” value ([2]; WT mouse islets, G2, 1uM) was 53.6232 pg/ml/ islet, the “Islet insulin, mean” value ([2]; WT mouse islets, G2, 1uM) was 1.0888 and the “Islet Glucagon” value ([2]; WT mouse islets, G16, 1uM) was 29.473 pg/ml/ islet and 34.729 pg/ml/ islet and 57.354 pg/ml/ islet and 33.737 pg/ml/ islet and 7.252 pg/ml/ islet and 14.915 pg/ml/ islet and 23.157 pg/ml/ islet and 23.385 pg/ml/ islet and 38.776 pg/ml/ islet. The Islet insulin ([2]; WT mouse islets, G16, 1uM, listed as L-005306254) was 12.607 and 12.478 and 13.17 and 12.065 and 9.432 and 10.077 and 12.044 and 12.3 and 10.845 and 11.903, the “Islet Glucagon, mean” value ([2]; WT mouse islets, G16, 1uM) was 29.1976 pg/ml/ islet and the “Islet insulin, mean” value ([2]; WT mouse islets, G16, 1uM) was 11.6921. For the same compound, the “glucagon secretion from islets” value ([2]; WT mouse islets) was “significantly elevated”.
With `Cc1cc(OCCCS(C)(=O)=O)cc(C)c1-c1cccc(COc2cc3c(cn2)[C@H]2[C@@H](C3)[C@@H]2C(=O)O)c1` [MK-8666] the “Islet Glucagon” value ([2]; KO mouse islets, G2, 10 uM) was 18.0653 pg/ml/ islet and 18.1157 pg/ml/ islet and 9.579 pg/ml/ islet and 14.1337 pg/ml/ islet and 15.8166 pg/ml/ islet and 22.7674 pg/ml/ islet, the Islet insulin ([2]; KO mouse islets, G2, 10 uM) was 0.7614 and 0.3958 and 0.3055 and 0.5799 and 0.6404 and 0.3029 and the “Islet Glucagon, mean” value ([2]; KO mouse islets, G2, 10 uM) was 16.4129 pg/ml/ islet. For the same compound, the “Islet insulin, mean” value ([2]; KO mouse islets, G2, 10 uM) was 0.4977, the “Islet Glucagon” value ([2]; KO mouse islets, G16, 10 uM) was 11.8893 pg/ml/ islet and 4.442 pg/ml/ islet and 4.11 pg/ml/ islet and 16.6705 pg/ml/ islet and 9.138 pg/ml/ islet and 11.4903 pg/ml/ islet and 5.5193 pg/ml/ islet and 2.29 pg/ml/ islet and 10.7282 pg/ml/ islet and 2.062 pg/ml/ islet and the Islet insulin ([2]; KO mouse islets, G16, 10 uM) was 1.241 and 2.484 and 3.15 and 0.9538 and 3.706 and 3.098 and 3.161 and 1.875 and 3.378 and 6.11. For the same compound, the “Islet Glucagon, mean” value ([2]; KO mouse islets, G16, 10 uM) was 7.834 pg/ml/ islet, the “Islet insulin, mean” value ([2]; KO mouse islets, G16, 10 uM) was 2.9156 and the “Islet Glucagon” value ([2]; WT mouse islets, G2, 10 uM) was 19.4342 pg/ml/ islet and 13.1173 pg/ml/ islet and 22.868 pg/ml/ islet and 18.9373 pg/ml/ islet and 12.9706 pg/ml/ islet and 18.154 pg/ml/ islet. For the same compound, the “Islet Glucagon, mean” value ([2]; WT mouse islets, G2, 10 uM) was 17.5802 pg/ml/ islet, the “Islet insulin, mean” value ([2]; WT mouse islets, G2, 10 uM) was 0.394 and the “Islet Glucagon” value ([2]; WT mouse islets, G16, 10 uM) was 6.349 pg/ml/ islet and 9.927 pg/ml/ islet and 6.387 pg/ml/ islet and 12.9481 pg/ml/ islet and 7.932 pg/ml/ islet and 7.688 pg/ml/ islet and 3.944 pg/ml/ islet and 9.1471 pg/ml/ islet and 7.361 pg/ml/ islet. For the same compound, the “Islet Glucagon, mean” value ([2]; WT mouse islets, G16, 10 uM) was 7.965 pg/ml/ islet, the “Islet insulin, mean” value ([2]; WT mouse islets, G16, 10 uM) was 4.275 and the “glucagon secretion from islets” value ([2]; WT mouse islets) was “not”.
With `Cc1cc(OCCCS(C)(=O)=O)cc(C)c1-c1cccc(COc2ccc3c(c2)OC[C@H]3CC(=O)O)c1` [TAK-875, reference compound] the “blood glucose vs vehicle” value ([1]; GK rat, single PO dose at maximal efficacious dose, 24 hr time course) was “reduced from the 1 hr time point until the 8 hr time point” and the Plasma Glucagon ([1]; GK rat, single PO dose at maximal efficacious dose, up to 24 hr) was “not significant”.
